The text below walks through data of ChEMBL document CHEMBL1156460, “Lumazine synthase from Candida albicans as an anti-fungal target enzyme: structural and biochemical basis for drug design” (J Biol Chem, 2007).

The assay concerns Candida albicans. Put plainly: Binding affinity to Candida albicans lumazine synthase.

Consider `O=c1[nH]c(=O)c2c([nH]1)n(C[C@H](O)[C@H](O)[C@H](O)CO)c(=O)c(=O)n2CCCCOP(=O)(O)O`, for which the Ka stood at 1.63e+06 M⁻¹.
With `O=c1[nH]c(Cl)c(CCCCOP(=O)(O)O)c(=O)[nH]1`, the Ka turned out to be 6.61e+06 M⁻¹.
Consider `O=c1[nH]c(=O)c2c([nH]1)n(C[C@H](O)[C@H](O)[C@H](O)CO)c(=O)n2CCCOP(=O)(O)O`, for which the Ka was determined as 3.53e+06 M⁻¹.
The result for `O=c1[nH]c(=O)c2[nH]c(=O)n(C[C@H](O)[C@H](O)[C@H](O)CO)c2[nH]1` reads 758000 M⁻¹.
